# Laboratory results as given in the Kinase Knowledgebase extract (Sharma et al. 2016).
# Values joined by “and” are separate entries in the source; they are usually repeats but may differ in a detail not shown here. Equal values may be shown once.
# Target: MAPK14 (human) (UniProt Q16539)
# Assay: Enzyme Assay
# Details: not given
# Sequence of MAPK14 (human) (Q16539 whole entry, looked up): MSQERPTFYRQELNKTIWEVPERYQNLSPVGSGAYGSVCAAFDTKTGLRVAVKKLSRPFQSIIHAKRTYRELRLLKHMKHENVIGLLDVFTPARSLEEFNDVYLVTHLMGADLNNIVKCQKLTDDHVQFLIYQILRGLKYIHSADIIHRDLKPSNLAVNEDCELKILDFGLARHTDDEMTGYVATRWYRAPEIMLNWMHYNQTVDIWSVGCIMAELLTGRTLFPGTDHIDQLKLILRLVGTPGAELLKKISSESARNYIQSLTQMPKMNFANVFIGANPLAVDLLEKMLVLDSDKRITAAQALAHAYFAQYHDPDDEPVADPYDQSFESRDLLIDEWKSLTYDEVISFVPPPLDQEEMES
row,IC50 [nM],Structure (SMILES)
1,1100,N#CC1(c2cccc(C(=O)Nc3cc(Oc4ccc5nc(NC(=O)C6CC6)sc5n4)ccc3F)c2Cl)CC1
2,30,Nc1ccccc1Nc1ccc2c(c1)CCc1ccc(OCCN3CCOCC3)cc1C2=O
3,7300,COc1c(NC(=O)C(=O)c2ccc(OCCN3CCOCC3)c3ccccc23)cc(C(C)(C)C)cc1NS(C)(=O)=O
4,> 10000,CN(C)CCn1cc(NC(=O)c2cccc(-n3cc(NC(=O)Nc4ccccc4Cl)cn3)c2)cn1

# Target: CDK2 (UniProt P24941)
# Assay: Enzyme Assay
# Details: not given
row,IC50 [nM],Structure (SMILES)
1,19,FC(F)(F)c1cnc(Nc2ccc3[nH]cnc3c2)nc1Nc1ccc2[nH]cnc2c1
2,> 20000,Cc1ccc2ncc(C3=C(c4cn5c6c(cccc46)CN(C(=O)N4CCCCC4)CC5)C(=O)NC3=O)n2c1

# Same assay, conditions: concentration not given here
activity [%],inhibition [%],Structure (SMILES)
31,69,Nc1n[nH]c(N)c1N=Nc1ccc(O)cc1

# Target: CDK2 (human) (UniProt P24941)
# Assay: Enzyme Assay
# Details: not given
row,IC50 [nM],Structure (SMILES)
1,2700,N#CC1(c2cccc(C(=O)Nc3cc(Oc4ccc5nc(NC(=O)C6CC6)sc5n4)ccc3F)c2Cl)CC1

# Target: MAPK14 (human) (UniProt Q16539)
# Assay: Assessment of MAPK14 Kinase Activity
# Details: not given
row,IC50,Structure (SMILES)
1,69 nM and 70 nM,CSc1nc(-c2ccc(F)cc2)c(-c2ccncc2)[nH]1

# Target: PIK3CA (human) (UniProt P42336)
# Assay: Assessment of PIK3CA Kinase Activity
# Details: not given
# Sequence of PIK3CA (human) (P42336 whole entry, looked up): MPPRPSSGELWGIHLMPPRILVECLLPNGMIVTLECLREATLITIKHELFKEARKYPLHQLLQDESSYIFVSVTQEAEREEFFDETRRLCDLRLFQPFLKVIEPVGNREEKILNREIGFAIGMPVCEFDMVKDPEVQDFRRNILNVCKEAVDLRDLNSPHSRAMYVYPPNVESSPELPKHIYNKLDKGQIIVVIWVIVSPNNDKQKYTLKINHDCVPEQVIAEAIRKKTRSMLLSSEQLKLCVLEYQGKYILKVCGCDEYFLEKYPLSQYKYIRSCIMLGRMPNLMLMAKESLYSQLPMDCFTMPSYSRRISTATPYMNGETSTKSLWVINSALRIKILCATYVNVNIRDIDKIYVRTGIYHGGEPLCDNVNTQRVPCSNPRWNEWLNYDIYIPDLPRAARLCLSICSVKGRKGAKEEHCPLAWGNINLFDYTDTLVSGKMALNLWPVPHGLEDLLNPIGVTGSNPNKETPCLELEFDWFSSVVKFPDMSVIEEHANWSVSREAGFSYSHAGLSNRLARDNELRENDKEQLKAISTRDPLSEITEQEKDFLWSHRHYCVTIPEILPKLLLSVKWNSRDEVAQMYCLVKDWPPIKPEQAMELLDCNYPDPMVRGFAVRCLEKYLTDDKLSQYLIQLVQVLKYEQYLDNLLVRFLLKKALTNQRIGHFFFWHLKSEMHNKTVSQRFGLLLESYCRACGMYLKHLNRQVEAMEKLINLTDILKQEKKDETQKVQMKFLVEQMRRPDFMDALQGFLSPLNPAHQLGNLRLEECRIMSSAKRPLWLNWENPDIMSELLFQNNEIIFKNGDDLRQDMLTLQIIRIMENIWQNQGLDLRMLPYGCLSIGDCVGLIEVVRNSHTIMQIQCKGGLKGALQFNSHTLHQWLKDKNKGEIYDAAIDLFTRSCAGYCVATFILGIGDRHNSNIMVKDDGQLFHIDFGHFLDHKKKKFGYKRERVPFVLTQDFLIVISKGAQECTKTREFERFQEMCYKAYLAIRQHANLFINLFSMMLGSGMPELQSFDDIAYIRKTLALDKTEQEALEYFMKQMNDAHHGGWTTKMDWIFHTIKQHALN
Structure (SMILES),IC50 [nM],Ki [nM]
CCOC(=O)N1CCC(n2ncc3c(N4CCO[C@@H](C)C4)nc(-c4ccc(NC(=O)Nc5ccncc5)cc4)nc32)CC1,18,
OCc1cccc(-c2cc(-n3c(C(F)F)nc4ccccc43)nc(N3CCOCC3)n2)c1,300,
CCc1ncnc(N2CCC(O)(CC)CC2)c1C#Cc1ccc(N)nc1,50,
NCC(=O)N1CCN(c2nc(N3CCOCC3)cc(-n3c(C(F)F)nc4ccccc43)n2)CC1,100,
O=C(Nc1ccc(F)cc1)Nc1ccc(-c2nc(N3CCOCC3)nc(N3C4CCC3COC4)n2)cc1,39,
NCC(=O)N1CCC(c2cc(N3CCOCC3)nc(-n3c(C(F)F)nc4ccccc43)n2)CC1,300,
NCCC1CCN(c2nc(N3CCOCC3)cc(-n3c(C(F)F)nc4ccccc43)n2)CC1,200,
O=C(Nc1cccc(-c2cc(N3CCOCC3)nc(-c3cccc(O)c3)n2)c1)C1CCCNC1 (stereo not given),100,
O=C(Nc1cccc(-c2cc(N3CCOCC3)nc(-c3cccc(CO)c3)n2)c1)N1CCNCC1,300,
CCOC1CCN(c2ncnc(CC)c2C#Cc2ccc(N)nc2)CC1,77,
CCOC(=O)N1CCC(n2ncc3c(N4CCO[C@H](C)C4)nc(-c4ccc(NC(=O)Nc5ccncc5)cc4)nc32)CC1,517,
NC(=O)[C@@H]1CCCCN1C1CCN(c2nc(N3CCOCC3)cc(-n3c(C(F)F)nc4ccccc43)n2)CC1,600,
Cc1ncnc(N2CCC(C)(O)CC2)c1C#Cc1ccc(N)nc1,38,

# Further lines, results first:
IC50 [nM],Ki [nM],Structure (SMILES)
,12,Cc1nc(N)nc(-c2cc(Cl)cnc2Nc2cnc(Cl)c(NS(=O)(=O)N(C)C)c2)n1
11,,COc1cccc(Nc2nc(-c3cccc4[nH]nc(N)c34)nc3c2cnn3C)c1OC
100,,NCC(=O)N1CC=C(c2cc(N3CCOCC3)nc(-n3c(C(F)F)nc4ccccc43)n2)CC1
20,,Nc1ncc(-c2nc(N3CCOCC3)nc3c2CCN3c2ccc(CN3CCN(CCCCF)CC3)cc2)cn1
2300,,O=C(Nc1ccc(-c2cc(-n3c(C(F)F)nc4ccccc43)nc(N3CCOCC3)n2)cc1)[C@@H]1CCCCN1
100,,NCc1ccc(NC(=O)c2cccc(-c3cc(N4CCOCC4)nc(-c4cccc(CO)c4)n3)c2)cc1
44.5,,NC(=O)c1ccc(NC(=O)Nc2ccc(-c3cc(N4CC5CCC(C4)O5)nc(-c4ccc(NC(=O)Nc5ccc(C(N)=O)cc5)cc4)n3)cc2)cc1
100,,NCC(=O)N1CCN(c2cc(N3CCOCC3)nc(-n3c(C(F)F)nc4ccccc43)n2)CC1
,40,NC(=O)[C@@H]1CCCN1C(=O)Nc1nc2ccc(-c3cnc(N)c(C(F)(F)F)c3)cc2s1
136,,CCc1ncnc(N2CCC3(CCN(C)CC3)CC2)c1C#Cc1ccc(N)nc1
20100,,Cc1nc(NCC(=O)N(C)C)cc(-c2c(Nc3ccn(C)n3)nc3cccnn23)n1
830,,Cc1nc(N)cc(n1)C2=C(Nc3cc[nH]n3)NC4=N2N=CC=C4
254,,CN(C(=O)c1cc2c(s1)-c1ccccc1OC2)c1ccccc1F
10 to 1000,,Cn1c(=NC#N)n(-c2ccc(C(C)(C)C#N)nc2)c2c3cc(-c4ccnc(N5CCOCC5)c4Cl)ccc3ncc21
1930,,CC(C)(C)COC(=O)NCc1ccc(NC(=O)Nc2ccc(-c3nc(CS(C)(=O)=O)cc(N4CC5CCC(C4)O5)n3)cc2)cc1
200,,NC(=O)[C@@H]1CCCN1CC(=O)N1CCN(c2nc(N3CCOCC3)cc(-n3c(C(F)F)nc4ccccc43)n2)CC1
4550,,CCOC(=O)N1CCC(n2ncc3c(N4CCO[C@H](C)C4)nc(-c4ccc(NC(=O)NCCF)cc4)nc32)CC1
521,,CCOC(=O)N1CCC(n2ncc3c(N4CCO[C@@H](C)C4)nc(-c4ccc(NC(=O)NCCF)cc4)nc32)CC1
104,,Cc1ncnc(N2CCC(=O)CC2)c1C#Cc1ccc(N)nc1
100,,O=C(Nc1cccc(-c2cc(N3CCOCC3)nc(-c3cccc(CO)c3)n2)c1)C1CCNCC1
,25,COCCOc1cnc(Nc2cnc(Cl)c(NS(C)(=O)=O)c2)c(-c2nc(C)nc(N)n2)c1
170,,Cc1nc(N)nc(-c2c(Nc3ccn[nH]3)nc3ccc(CCC(O)CO)cn23)n1 (stereo not given)
1.7,,COc1cccc(Nc2nc(-c3cccc4onc(N)c34)nc3c2cnn3C)c1OC
> 100000,,CS(=O)(=O)Cc1cc(N2CCOCC2)nc(-c2ccc(NC(=O)c3ccno3)cc2)n1
15,,CCC1(O)CCN(c2ncnc(C)c2C#Cc2ccc(N)nc2)CC1
20,,COc1cccc2c1nc(C(F)F)n2-c1nc(N2CCOCC2)cc(N2CCN(C(=O)CN)CC2)n1

# Target: MAPK14 (UniProt Q16539)
# Assay: Inhibition of MAPK14 Kinase Activity
# Details: not given
# Sequence of MAPK14 (Q16539 whole entry, looked up): as the sequence (Q16539 whole entry, looked up) above
row,Structure (SMILES),IC50 [nM]
1,Cc1nc(N)sc1-c1ccnc(Nc2ccc(N3CCOCC3)cc2)n1,> 100000
2,CCC(CO)(CO)Nc1ncc2cc(Oc3ccc(F)cc3F)ccc2n1,< 100
3,Cc1ccccc1C(=O)c1ccc(Nc2cncc3ccccc23)cc1Cl,12.8
4,O=c1ncn2nc(Sc3ccc(F)cc3)ccc2c1-c1c(Cl)cccc1Cl,100
5,CC[C@@H](N)C(=O)Nc1nc(C)c(-c2ccnc(Nc3cccc([N+](=O)[O-])c3)n2)s1,> 100000
6,O=c1ncn2nc(Sc3cccc(F)c3)ccc2c1-c1c(Cl)cccc1Cl,450
7,O=C(c1cccc2[nH]ccc12)N1CCN(Cc2ccccc2)CC1,1540
8,OCC(O)CNc1ncc2cc(Oc3ccc(F)cc3F)ccc2n1 (stereo not given),< 2000
9,O=C(c1c[nH]c2ccccc12)N1CCN(Cc2ccccc2)CC1,4740
10,FC(F)(F)c1cnc(Nc2ccc(Br)cc2)nc1Nc1ccc2nc[nH]c2c1,> 1000
11,O=C(c1ccc2cc[nH]c2c1)N1CCN(Cc2ccccc2)CC1,5520
12,CSc1nc(-c2ccnc(NC(C)c3ccccc3)c2)c(-c2ccc(F)cc2)n1C (stereo not given),27000
13,CC(C)(CO)Nc1nccc(CCc2c[nH]c3ccc(N)cc23)n1,1500
14,NC(=O)c1cc(Cl)c(N2C(=O)NCc3nc(Sc4ccc(F)cc4)ccc32)c(Cl)c1,23
15,COc1cc2ncnc(Nc3cc(NC(=O)c4cccc(N(C)C)c4)ccc3C)c2cc1OC,31
16,OC1CCC(Nc2ncc3cc(Oc4ccc(F)cc4F)ccc3n2)CC1 (stereo not given),< 30
17,Cc1nc(NC(=O)[C@H](N)[C@@H](C)O)sc1-c1ccnc(Nc2cccc([N+](=O)[O-])c2)n1,> 100000
18,CS(=O)(=O)N1CCC(Nc2ncc3cc(Oc4ccc(F)cc4F)ccc3n2)CC1,< 1
19,Cc1ccc(Sc2ccc3c(-c4c(Cl)cccc4Cl)c(=O)ncn3n2)c(C)c1,264
20,Cc1cccc(-c2n[nH]cc2-c2ccc(O)cc2)n1,31
21,CSc1nc(-c2ccc(F)cc2)c(-c2ccncc2)[nH]1,630
22,CNC(=O)c1cc(Oc2ccc(NC(=O)Nc3ccc(Cl)c(C(F)(F)F)c3)c(F)c2)ccn1,24
23,Cc1cccc(Cl)c1Nc1nc2ccc(N3CCN[C@@H](C)C3)nc2n2cncc12,380

# Other lines, results leading:
row,IC50 [nM],Structure (SMILES)
1,34,Cc1ccc(-n2nc(C3(C)CC3)cc2NC(=O)Nc2cnc(OC3CCN(C(=O)C4(C)CC4)CC3)c3ccccc23)cc1
2,> 1000,FC(F)(F)c1cnc(Nc2ccc3[nH]cnc3c2)nc1Nc1ccc2[nH]cnc2c1
3,> 100000,CNc1nc(C)c(-c2ccnc(Nc3ccc(N4CCOCC4)cc3)n2)s1
4,14400,Cc1cccc(-n2nnnc2-c2ccc3c(c2)n(C)c(=O)n3C)c1
5,3.2,C[C@H](C(=O)O)N1CCC(c2cc3c(ccc(=O)n3-c3c(Cl)cccc3Cl)c(-c3ccc(F)cc3Cl)n2)CC1
6,4000,CCn1c(=O)n(CC)c2cc(-c3[nH]c(-c4ccc(S(C)(=O)=O)cc4)nc3-c3ccc(F)cc3)ccc21
7,> 20000,Cc1ccc2ncc(C3=C(c4cn5c6c(cccc46)CN(C(=O)N4CCCCC4)CC5)C(=O)NC3=O)n2c1
8,141,COc1cc2ncnc(Nc3cccc(NC(=O)c4ccccc4)c3)c2cc1OC
9,7700,CCOc1cc2cnc(NC(CCOC)CCOC)nc2[nH]c1=O
10,2000,CS(=O)(=O)CCNc1ncc2cc(Oc3ccc(F)cc3F)ccc2n1
11,1.3,C[C@@H](C(=O)O)N1CCC(c2cc3c(ccc(=O)n3-c3c(Cl)cccc3Cl)c(-c3ccc(F)cc3Cl)n2)CC1
12,250,O=c1ncn2nc(Sc3ccccc3Br)ccc2c1-c1c(Cl)cccc1Cl
13,> 10000,CCOc1cc2cnc(NC3CCNCC3)nc2n(C)c1=O
14,2200,CN1N=C(c2ccccc2F)Oc2cnc(NC3CCOCC3)nc21
15,1600,COc1cc2cnc(NC3CCOCC3)nc2n(C)c1=O
16,> 10000,CCOc1ccc2nc(NC(CCO)CCO)ncc2c1
17,> 10000,CCS(=O)(=O)c1ccc(OC)c(Nc2ncc(-c3cccc(-c4ccccc4Cl)c3)o2)c1
18,220,CSc1nc(-c2ccc(F)cc2)c(-c2ccnc(NC(C)c3ccccc3)c2)n1C (stereo not given)
19,> 1000,FC(F)(F)c1cnc(Nc2ccc3nc[nH]c3c2)nc1Nc1ccccc1Cl
20,< 30,CC(C)Nc1ncc2cc(Oc3ccc(F)cc3F)ccc2n1
21,> 1000,COc1ccc(Nc2nc(Nc3ccc4nc[nH]c4c3)ncc2C(F)(F)F)cc1
22,> 100000,CNc1nc(C)c(-c2ccnc(Nc3ccc(N4CCN(Cc5ccccc5)CC4)cc3)n2)s1
23,189,CN1N=C(c2ccccc2Cl)Oc2cnc(NC3CCOCC3)nc21
24,58,CCOc1cc2cnc(NC3CCN(S(C)(=O)=O)CC3)nc2n(C)c1=O

# Same assay, conditions: concentration not given here
row,inhibition [%],Structure (SMILES)
1,-6,O=C1NCc2nc(Sc3ccc(Sc4ccc(F)cc4)cc3)ccc2N1c1c(Cl)cccc1Cl
2,46,NC(=O)c1cccc(Cl)c1N1C(=O)NCc2nc(Sc3ccc(F)cc3)ccc21
3,18,Nc1n[nH]c(N)c1N=Nc1ccc(O)cc1

# Target: MAPK14 (human) (UniProt Q16539)
# Assay: Inhibition of MAPK14 Kinase Activity
# Details: concentration not given here
row,activity [%],Structure (SMILES)
1,82,Nc1n[nH]c(N)c1N=Nc1ccc(O)cc1
